{"source": "patent US10092620B2", "about": "“Uses of cyclic peptides for treating and preventing atherosclerosis” (THE SCRIPPS RESEARCH INSTITUTE, priority 2013, dated 2018)", "key": {"human plasma HDL": {"test_system": "human plasma HDL", "assay": "human plasma HDL remodeling (NDGGE, immunoblot for human apoA-I)", "assay_type": "biochemical", "conditions": "human plasma in vitro; Western blot for apoA-I; FIGS. 1 and 2a", "description": "As an initial phase of investigation, we evaluated in vitro the effectiveness of our cyclic D,L-α-peptides to remodel mature human plasma HDLs into lipid-poor HDL (FIG. 1 and FIG. 2a). Lipid-poor HDL particles are key acceptors of cholesterol in reverse cholesterol transport and are thus crucial for combating atherosclerosis. In fact, with respect to the cholesterol efflux capacity of human sera, the levels of lipid-poor HDL correlate much better than the levels of HDL-cholesterol or apoA-I. Briefly, our assay involved incubating human plasma with a peptide, after which the plasma sample was subjected to non-denaturing gradient gel electrophoresis (NDGGE) to separate the HDL subspecies and then immunoblotted for human apoA-I. The ranked activities of the cyclic D,L-α-peptides in promoting formation of lipid-poor HDL are shown in FIG. 1. It should be noted that there are inherent variabilities associated with electrophoretic transfer, staining, and densitometric quantitation, so the peptide ranking should be viewed as an approximate guide to relative plasma HDL remodeling efficacy. Nevertheless, the rankings were similar overall whether the panel was assayed by using peptide stock solutions prepared in 10% sucrose/H2O (FIGS. 1 and 2a) or peptide stock solutions prepared in 1:1 DMSO/H2O. From these preliminary structure-activity relationship (SAR) studies, we identified a pronounced sequence dependence for efficient plasma HDL remodeling (vide infra).\nHuman plasma remodeling: All procedures involving human samples were approved by TSRI Institutional Review Board. Procedures were modified from those reported in Troutt et al., J. Lipid Res. 49, 581-587, 2008. Blood samples from normal healthy human donors were obtained from TSRI Normal Blood Donor Program. EDTA-anticoagulated whole blood was centrifuged at 1500×g for 15 min within 1 h of being drawn from the donor. The plasma layer was aliquoted and used immediately or frozen at −80° C. for future use. Peptide stock solutions were prepared at ˜15 mM peptide in 50% DMSO for initial screenings, or at ˜2 mM peptide in 10% sucrose for remodeling assays at lower concentrations (FIG. 1) and cholesterol efflux assays (FIG. 2). Plasma samples (30 μL) were treated with peptide stocks, and the samples were incubated at 37° C. for 0.5-1 h, and then quenched by adding 270 μL of 50% sucrose (1:9 dilution). Samples were mixed with 6× native loading buffer (125 mM tris, pH 6.8, 0.02% bromophenol, 20% glycerol), of which 6 μL was loaded onto a 4-20% polyacrylamide gel. The molecular weight ladder used was High Molecular Weight Calibration Kit (Amersham Biosciences, #17-0445-01). […] The films were scanned and quantified by densitometry using the program LabWorks (v. 4.0.0.8). […]"}, "[1]": {"assay": "plasma liver enzyme activities (ALT, AST)", "assay_type": "in vivo, mouse", "conditions": "oral ~25 mg/kg/day, 10 weeks, LDLr-null mice", "method": "Plasma liver enzyme activities: At the time of harvest (10 week), blood (˜0.5 mL) was collected after an overnight fast (14-16 h) by cardiac puncture into EDTA anti-coagulant coated tubes, and centrifuged at 4° C. for 10 min×5000 rpm. Plasma samples were stored at −80° C. until analysis. Plasma alanine aminotransferase (ALT) and aspartate aminotransferase (AST) concentrations were measured using Infinity ALT (GPT) and AST (GOT) liquid stable reagents, respectively, which is a colorimetric kinetic assay (Thermo Scientific). Assays were performed in accordance to the manufacturer's recommendations, adjusting the reagent volumes (20 μL plasma+200 μL reagent, 0.69-cm light pathlength of the solution in the well) for analysis of samples in 96-well flat bottom microplate format."}}, "note": "Non-standard residues stand in square brackets, D forms with d. Residues, ends and D or L forms follow the SMILES beside them."}
{"smiles": "CC(C)C[C@@H]1NC(=O)[C@@H](Cc2c[nH]c3ccccc23)NC(=O)[C@H](CCCNC(=N)N)NC(=O)[C@@H](CCC(=O)O)NC(=O)[C@H](CCC(N)=O)NC(=O)[C@@H](CCC(=O)O)NC(=O)[C@H](CCCNC(=N)N)NC(=O)[C@@H](Cc2c[nH]c3ccccc23)NC1=O", "note": "[SEQ ID NO:1, c[wLwReQeR]] (cyclo([dW]L[dW]R[dE]Q[dE]R))", "values": [{"measurement": "plasma HDL remodeling to lipid-poor HDL (in words)", "setting": "human plasma HDL", "result": "considerably more active than any of four analogs"}, {"measurement": "liver enzyme ALT, difference between groups", "setting": "[1]", "result": "No differences"}, {"measurement": "liver enzyme AST, difference between groups", "setting": "[1]", "result": "No differences"}]}
